According to patent US3981999A, “Fish disease treatment” (Dainippon Pharmaceutical Co., Ltd., priority 1973, dated 1976):
In brackets after ≈: the same amount, converted by molar mass. Read-outs that look alike come from different tables or passages of the source.

Experiments:
[1] = system: Aeromonas liquefacieus Y-62; experiment: Oral effect against Aeromonas infection in goldfish; assay type: in vivo
Procedure: Goldfish each weighing about 6 - 7 g were given a fish food containing each of the test compounds. After 30 minutes, the fish were infected intramuscularly with Aeromonas liquefacieus Y-62 (about 10^7 germs/fish) under ether anesthesia. […] In the same manner, the control group was given the same fish food without the test compound.

goldfish = experiment: Oral toxicity in goldfish; assay type: in vivo; conditions: 10% in diet (PA 800, AT-1493 955, AT-1557 935, AT-1475 923 mg/kg); for Mortality: 7 days; for Number of the survival after 1 day from administration / Number of the survival after 2 days from administration / Number of the survival after 3 days from administration / Number of the survival after 4 days from administration / Number of the survival after 5 days from administration / Number of the survival after 6 days from administration / Number of the survival after 7 days from administration: day 0: 5 fish
Procedure: A diet containing 10% of each of the test compounds was given orally to groups each consisting of 5 goldfish each weighing 6 to 10 g, and observation was made for the following 7 days. The temperature of the water was maintained at 28°C.

[2] = system: Pasteurella piscicida Al-3; experiment: MIC by broth serial dilution; assay type: cell-based; conditions: Photobacterium damselae
Procedure: (§1) The MIC (minimum inhibitory concentration) of a test compound was determined by the serial dilution method on various pathogenic microorganisms incubated under the following experimental conditions. The lowest concentration at which the visible growth of the organism was inhibited was considered as MIC. […]
(§2) the broth-dilution method bouillon, pH 7.2, except for Vibrio (3% NaCl-bouillon, pH 7.2), Pasteurella (2% NaCl-Brain Heart Infusion, pH 7.3 and Chondrococcus (TY medium, pH 7.3) 1 drop of a bacterial suspension per test tube (100 - 1000 minimal growing units in the medium) 25°C, except for Pseud. anguilliseptica (20°C)
(§3) 48 hours, except for Pseudo. anguilliseptica ([…])

[3] = system: Aeromonas salmonicida Hara-2; experiment: MIC by broth serial dilution; assay type: cell-based
Procedure: as §1, §2, §3

[4] = system: Aeromonas salmonicida Kawazu; experiment: MIC by broth serial dilution; assay type: cell-based
Procedure: as §1, §2, §3

Vibrio anguillarum A-8 = experiment: MIC by broth serial dilution; assay type: cell-based
Procedure: as §1, §2, §3

[5] = system: Aeromonas salmonicida Hara-1; experiment: MIC by broth serial dilution; assay type: cell-based
Procedure: as §1, §2, §3

[6] = system: Pseudomonas anguilliseptica T-2; experiment: MIC by broth serial dilution; assay type: cell-based
Procedure: as §1, §2, §3

Vibrio anguillarum K-3 = experiment: MIC by broth serial dilution; assay type: cell-based
Procedure: as §1, §2, §3

[7] = system: Pasteurella piscicida K-1; experiment: MIC by broth serial dilution; assay type: cell-based; conditions: Photobacterium damselae
Procedure: as §1, §2, §3

[8] = system: Aeromonas liquefaciens Y-62; experiment: MIC by broth serial dilution; assay type: cell-based; conditions: Aeromonas hydrophila
Procedure: as §1, §2, §3

[9] = system: Aeromonas salmonicida Kusuda; experiment: MIC by broth serial dilution; assay type: cell-based
Procedure: as §1, §2, §3

[10] = system: Pseudomonas anguilliseptica S-1; experiment: MIC by broth serial dilution; assay type: cell-based
Procedure: as §1, §2, §3

Chondrococcus sp K-2 = experiment: MIC by broth serial dilution; assay type: cell-based
Procedure: as §1, §2, §3

Vibrio anguillarum Km-30 = experiment: MIC by broth serial dilution; assay type: cell-based
Procedure: as §1, §2, §3

Chondrococcus sp K-1 = experiment: MIC by broth serial dilution; assay type: cell-based
Procedure: as §1, §2, §3

[11] = 0.1% in diet (PA 6.1, AT-1493 7.5, AT-1557 7.6, AT-1475 7.5 mg/kg), 5 days
[12] = 0.1% in diet (PA 6.1, AT-1493 7.5, AT-1557 7.6, AT-1475 7.5 mg/kg), day 0: PA 10, others 5 fish
[13] = 0.3% in diet, 22.3 mg/kg, day 0: 5 fish
[14] = AL3, 2% NaCl-Brain Heart Infusion pH 7.3, 25°C, 48 hours, read-out: MIC
[15] = HARA2, bouillon pH 7.2, 25°C, 48 hours, read-out: MIC
[16] = bouillon pH 7.2, 25°C, 48 hours, read-out: MIC
[17] = A8, 3% NaCl-bouillon pH 7.2, 25°C, 48 hours, read-out: MIC
[18] = HARA1, bouillon pH 7.2, 25°C, 48 hours, read-out: MIC
[19] = T2, bouillon pH 7.2, 20°C, 7 hours, read-out: MIC
[20] = K3, 3% NaCl-bouillon pH 7.2, 25°C, 48 hours, read-out: MIC
[21] = K1, 2% NaCl-Brain Heart Infusion pH 7.3, 25°C, 48 hours, read-out: MIC
[22] = Y62, bouillon pH 7.2, 25°C, 48 hours, read-out: MIC
[23] = S1, bouillon pH 7.2, 20°C, 7 hours, read-out: MIC
[24] = TY medium pH 7.3, 25°C, 48 hours, read-out: MIC
[25] = KM30, 3% NaCl-bouillon pH 7.2, 25°C, 48 hours, read-out: MIC
[26] = 0.03% in diet (PA 2.5, AT-1493 2.5, AT-1557 2.2 mg/kg), 5 days
[27] = 0.03% in diet (PA 2.5, AT-1493 2.5, AT-1557 2.2 mg/kg), day 0: PA 10, others 5 fish
[28] = 1% in diet, 80.4 mg/kg, day 0: 5 fish
[29] = 3% in diet, 253.1 mg/kg, day 0: 5 fish

C=Cn1cc(C(=O)O)c(=O)c2ccc(N3CCNCC3)nc21 [AT-1475, 1,4-Dihydro-7-(1-piperazinyl)-4-oxo-1-vinyl-1,8-naphthyridine-3-carboxylicacid]
Percent survival [1, 11]: 60%
Number of surviving fish after 1 day [1, 12]: 5
Number of surviving fish after 2 days [1, 12]: 4
Number of surviving fish after 3 days [1, 12]: 4
Number of surviving fish after 4 days [1, 12]: 3
Number of surviving fish after 5 days [1, 12]: 3
Percent survival ([1]; 0.3% in diet, 22.3 mg/kg, 5 days): 100%
Number of surviving fish after 1 day [1, 13]: 5
Number of surviving fish after 2 days [1, 13]: 5
Number of surviving fish after 3 days [1, 13]: 5
Number of surviving fish after 4 days [1, 13]: 5
Number of surviving fish after 5 days [1, 13]: 5
Mortality (goldfish): 0%
Number of the survival after 1 day from administration (goldfish): 5
Number of the survival after 2 days from administration (goldfish): 5
Number of the survival after 3 days from administration (goldfish): 5
Number of the survival after 4 days from administration (goldfish): 5
Number of the survival after 5 days from administration (goldfish): 5
Number of the survival after 6 days from administration (goldfish): 5
Number of the survival after 7 days from administration (goldfish): 5
MIC [2, 14]: 1 µg/mL (≈ 3.33 µM)
MIC [3, 15]: 1 µg/mL (≈ 3.33 µM)
MIC [4, 16]: 0.3 µg/mL (≈ 0.999 µM)
MIC (Vibrio anguillarum A-8; [17]): 10 µg/mL (≈ 33.3 µM)
MIC [5, 18]: 0.3 µg/mL (≈ 0.999 µM)
MIC [6, 19]: 0.1 µg/mL (≈ 0.333 µM)
MIC (Vibrio anguillarum K-3; [20]): 3 µg/mL (≈ 9.99 µM)
MIC [7, 21]: 1 µg/mL (≈ 3.33 µM)
MIC [8, 22]: 0.3 µg/mL (≈ 0.999 µM)
MIC [9, 16]: 0.3 µg/mL (≈ 0.999 µM)
MIC [10, 23]: 0.1 µg/mL (≈ 0.333 µM)
MIC (Chondrococcus sp K-2; [24]): 1 µg/mL (≈ 3.33 µM)
MIC (Vibrio anguillarum Km-30; [25]): 10 µg/mL (≈ 33.3 µM)
MIC (Chondrococcus sp K-1; [24]): 1 µg/mL (≈ 3.33 µM)

C=Cn1cc(C(=O)O)c(=O)c2ccc(N3CCN(C)CC3)cc21 [AT-1493, 1,4-Dihydro-7-(4-methyl-1-piperazinyl)-4-oxo-1-vinylquinoline-3-carboxylicacid]
Percent survival [1, 26]: 100%
Number of surviving fish after 1 day [1, 27]: 5
Number of surviving fish after 2 days [1, 27]: 5
Number of surviving fish after 3 days [1, 27]: 5
Number of surviving fish after 4 days [1, 27]: 5
Number of surviving fish after 5 days [1, 27]: 5
Percent survival [1, 11]: 100%
Number of surviving fish after 1 day [1, 12]: 5
Number of surviving fish after 2 days [1, 12]: 5
Number of surviving fish after 3 days [1, 12]: 5
Number of surviving fish after 4 days [1, 12]: 5
Number of surviving fish after 5 days [1, 12]: 5
Mortality (goldfish): 0%
Number of the survival after 1 day from administration (goldfish): 5
Number of the survival after 2 days from administration (goldfish): 5
Number of the survival after 3 days from administration (goldfish): 5
Number of the survival after 4 days from administration (goldfish): 5
Number of the survival after 5 days from administration (goldfish): 5
Number of the survival after 6 days from administration (goldfish): 5
Number of the survival after 7 days from administration (goldfish): 5
MIC [2, 14]: 1 µg/mL (≈ 3.19 µM)
MIC [3, 15]: 0.1 µg/mL (≈ 0.319 µM)
MIC [4, 16]: 0.1 µg/mL (≈ 0.319 µM)
MIC (Vibrio anguillarum A-8; [17]): 3 µg/mL (≈ 9.57 µM)
MIC [5, 18]: 0.1 µg/mL (≈ 0.319 µM)
MIC [6, 19]: 0.1 µg/mL (≈ 0.319 µM)
MIC (Vibrio anguillarum K-3; [20]): 3 µg/mL (≈ 9.57 µM)
MIC [7, 21]: 0.3 µg/mL (≈ 0.957 µM)
MIC [8, 22]: 0.1 µg/mL (≈ 0.319 µM)
MIC [9, 16]: 0.1 µg/mL (≈ 0.319 µM)
MIC [10, 23]: 0.1 µg/mL (≈ 0.319 µM)
MIC (Chondrococcus sp K-2; [24]): 3 µg/mL (≈ 9.57 µM)
MIC (Vibrio anguillarum Km-30; [25]): 3 µg/mL (≈ 9.57 µM)
MIC (Chondrococcus sp K-1; [24]): 3 µg/mL (≈ 9.57 µM)

C=Cn1cc(C(=O)O)c(=O)c2ccc(N3CCN(CC)CC3)cc21 [AT-1557, 1,4-Dihydro-7-(4-ethyl-1-piperazinyl)-4-oxo-1-vinylquinoline-3-carboxylic acid]
Percent survival [1, 26]: 80%
Number of surviving fish after 1 day [1, 27]: 5
Number of surviving fish after 2 days [1, 27]: 4
Number of surviving fish after 3 days [1, 27]: 4
Number of surviving fish after 4 days [1, 27]: 4
Number of surviving fish after 5 days [1, 27]: 4
Percent survival [1, 11]: 100%
Number of surviving fish after 1 day [1, 12]: 5
Number of surviving fish after 2 days [1, 12]: 5
Number of surviving fish after 3 days [1, 12]: 5
Number of surviving fish after 4 days [1, 12]: 5
Number of surviving fish after 5 days [1, 12]: 5
Mortality (goldfish): 0%
Number of the survival after 1 day from administration (goldfish): 5
Number of the survival after 2 days from administration (goldfish): 5
Number of the survival after 3 days from administration (goldfish): 5
Number of the survival after 4 days from administration (goldfish): 5
Number of the survival after 5 days from administration (goldfish): 5
Number of the survival after 6 days from administration (goldfish): 5
Number of the survival after 7 days from administration (goldfish): 5
MIC [2, 14]: 1 µg/mL (≈ 3.05 µM)
MIC [3, 15]: 0.3 µg/mL (≈ 0.916 µM)
MIC [4, 16]: 0.1 µg/mL (≈ 0.305 µM)
MIC (Vibrio anguillarum A-8; [17]): 3 µg/mL (≈ 9.16 µM)
MIC [5, 18]: 0.3 µg/mL (≈ 0.916 µM)
MIC [6, 19]: 0.1 µg/mL (≈ 0.305 µM)
MIC (Vibrio anguillarum K-3; [20]): 10 µg/mL (≈ 30.5 µM)
MIC [7, 21]: 1 µg/mL (≈ 3.05 µM)
MIC [8, 22]: 0.3 µg/mL (≈ 0.916 µM)
MIC [9, 16]: 0.3 µg/mL (≈ 0.916 µM)
MIC [10, 23]: 0.1 µg/mL (≈ 0.305 µM)
MIC (Chondrococcus sp K-2; [24]): 1 µg/mL (≈ 3.05 µM)
MIC (Vibrio anguillarum Km-30; [25]): 10 µg/mL (≈ 30.5 µM)
MIC (Chondrococcus sp K-1; [24]): 1 µg/mL (≈ 3.05 µM)

CN(C)C1C(=O)C(C(N)=O)=C(O)C2(O)C(=O)C3=C(O)c4c(O)cccc4C(C)(O)C3CC12 (centres unmarked) [Tetracycline, tetracycline, reference compound]
Percent survival ([1]; 1% in diet, 80.4 mg/kg): 0%
Number of surviving fish after 1 day [1, 28]: 3
Number of surviving fish after 2 days [1, 28]: 0
Number of surviving fish after 3 days [1, 28]: 0
Percent survival ([1]; 3% in diet, 253.1 mg/kg): 0%
Number of surviving fish after 1 day [1, 29]: 5
Number of surviving fish after 2 days [1, 29]: 1
Number of surviving fish after 3 days [1, 29]: 0
Percent survival ([1]; diet concentration of as high as more than 0.1% as well as as low as 0.1%): zero
MIC ([2]; AL3, 48 h, pH 7.3): 0.3 µg/mL (≈ 0.675 µM)
MIC ([3]; HARA2, 48 h, pH 7.2): 0.1 µg/mL (≈ 0.225 µM)
MIC ([4]; 48 h, pH 7.2): 1 µg/mL (≈ 2.25 µM)
MIC (Vibrio anguillarum A-8; A8, 48 h, pH 7.2): 1 µg/mL (≈ 2.25 µM)
MIC ([5]; HARA1, 48 h, pH 7.2): 0.3 µg/mL (≈ 0.675 µM)
MIC ([6]; T2, 7 h, pH 7.2): 0.3 µg/mL (≈ 0.675 µM)
MIC (Vibrio anguillarum K-3; K3, 48 h, pH 7.2): 1 µg/mL (≈ 2.25 µM)
MIC ([7]; K1, 48 h, pH 7.3): 0.3 µg/mL (≈ 0.675 µM)
MIC ([8]; Y62, 48 h, pH 7.2): 1 µg/mL (≈ 2.25 µM)
MIC ([9]; 48 h, pH 7.2): 0.3 µg/mL (≈ 0.675 µM)
MIC ([10]; S1, 7 h, pH 7.2): 0.3 µg/mL (≈ 0.675 µM)
MIC (Chondrococcus sp K-2; 48 h, pH 7.3): 1 µg/mL (≈ 2.25 µM)
MIC (Vibrio anguillarum Km-30; KM30, 48 h, pH 7.2): 0.3 µg/mL (≈ 0.675 µM)
MIC (Chondrococcus sp K-1; 48 h, pH 7.3): 1 µg/mL (≈ 2.25 µM)
